The data set is described as follows: Metabolic stability in human liver microsomes. The settings on record: for differences in half-life and intrinsic clearance compared to rac-MBDB HCl salt (reference compound) / differences in half-life and intrinsic clearance compared to R-MBDB HCl salt (reference compound) / differences in half-life and intrinsic clearance compared to S-MBDB HCl salt (reference compound): based on Table Ex7; for half-life at 0.25 μM / microsomal CLint at 0.25 μM: pH 7.4, NADPH; for half-life at 0.25 μM / microsomal CLint at 0.25 μM / CLint / t1/2: 37° C.; for CLint / t1/2: NADPH. It counts as in vitro ADME. The method, then:
Microsomal Assay: Human liver microsomes (20 mg/mL) were obtained. β-nicotinamide adenine dinucleotide phosphate, reduced form (NADPH), magnesium chloride (MgCl2), and dimethyl sulfoxide (DMSO) were purchased from Sigma-Aldrich. Determination of Metabolic Stability: 7.5 mM stock solutions of test compounds of the above structural formula (e.g., of an embodiment or aspect of embodiment thereof described herein), or pharmaceutically acceptable salt thereof, are prepared in DMSO. […] The diluted microsomes were added to wells of a 96-well deep-well polypropylene plate in triplicate. […] Reactions were initiated by addition of pre-warmed NADPH solution. The final reaction volume is 0.5 mL and contains 4.0 mg/mL human liver microsomes, 0.25 μM test compound, and 2 mM NADPH in 0.1 M potassium phosphate buffer, pH 7.4, and 3 mM MgCl2. The reaction mixtures were incubated at 37° C., and 50 pL aliquots were removed at 0, 5, 10, 20, and 30 minutes and added to shallow-well 96-well plates which contain 50 pL of ice-cold ACN (acetonitrile) with internal standard to stop the reactions. The plates were stored at 4° C. for 20 minutes after which 100 pL of water was added to the wells of the plate before centrifugation to pellet precipitated proteins. Supernatants were transferred to another 96-well plate and analyzed for amounts of parent remaining by LC-MS/MS using an Applied Bio-systems API 4000 mass spectrometer. The same procedure was followed for the non-enriched counterpart of the compound and the positive control, 7-ethoxycoumarin (1 μM). Testing was done in triplicate.
Data analysis: The in vitro T1/2s for test compounds were calculated from the slopes of the linear regression of % parent remaining (In) vs incubation time relationship.
k=−[slope of linear regression of % parent remaining (In) vs incubation time] The apparent intrinsic clearance was calculated using the following equation: […]

As for `Cl.[2H]C([2H])([2H])NC(CC)Cc1ccc2c(c1)OCO2` (racemic) [Compound 2, 1-(1,3-Benzodioxol-5-yl)-N-(trideuteriomethyl)butan-2-amine hydrochloride], the “differences in half-life and intrinsic clearance compared to rac-MBDB HCl salt (reference compound)” value is listed as “demonstrates differences”; the half-life at 0.25 μM is 1.87 h; the microsomal CLint at 0.25 μM came to 12.4 µL/min/mg.

With `Cl.[2H]C([2H])([2H])NC(CC)Cc1ccc2c(c1)OC([2H])([2H])O2` (racemic) [Compound 4, 1-(2,2-Dideuterio-1,3-benzodioxol-5-yl)-N-(trideuteriomethyl)butan-2-amine hydrochloride], the “differences in half-life and intrinsic clearance compared to rac-MBDB HCl salt (reference compound)” value is reported as “significant differences”; the half-life at 0.25 μM is 0.7 h; the microsomal CLint at 0.25 μM was 33 µL/min/mg.

Consider `Cl.[2H]C1([2H])Oc2ccc(CC(CC)NC)cc2O1` (racemic) [Compound 8, 1-(2,2-Dideuterio-1,3-benzodioxol-5-yl)-N-methyl-butan-2-amine hydrochloride], for which the “differences in half-life and intrinsic clearance compared to rac-MBDB HCl salt (reference compound)” value is given as “significant differences”; the half-life at 0.25 μM stood at 1.34 h; the intrinsic metabolic clearance (microsomal CLint) at 0.25 μM was determined as 17.2 µL/min/mg.

In turn, `CCC(Cc1ccc2c(c1)OCO2)NC.Cl` (racemic) [rac-MBDB HCl salt] gave a CLint of 11.9 μL/min/mg protein and a t1/2 of 1.93 h.

For the compound `Cl.[2H]C([2H])([2H])N[C@H](CC)Cc1ccc2c(c1)OCO2` [Compound 1, (2R)-1-(1,3-Benzodioxol-5-yl)-N-(trideuteriomethyl)butan-2-amine hydrochloride], the “differences in half-life and intrinsic clearance compared to R-MBDB HCl salt (reference compound)” value was “significant differences”; the half-life at 0.25 μM came to 1.61 h; the microsomal CLint at 0.25 μM came out at 14.3 µL/min/mg.

On to `Cl.[2H]C([2H])([2H])N[C@@H](CC)Cc1ccc2c(c1)OCO2` [Compound 3, (2S)-1-(1,3-Benzodioxol-5-yl)-N-(trideuteriomethyl)butan-2-amine hydrochloride], for which the “differences in half-life and intrinsic clearance compared to S-MBDB HCl salt (reference compound)” value is “demonstrates differences”; the half-life at 0.25 μM worked out at 2.88 h; the microsomal CLint at 0.25 μM was found to be 8.04 µL/min/mg.

`Cl.[2H]C([2H])([2H])N[C@H](CC)Cc1ccc2c(c1)OC([2H])([2H])O2` [Compound 5, (2R)-1-(2,2-Dideuterio-1,3-benzodioxol-5-yl)-N-(trideuteriomethyl)butan-2-amine hydrochloride]: the “differences in half-life and intrinsic clearance compared to R-MBDB HCl salt (reference compound)” value is “significant differences”; the half-life at 0.25 μM is 0.405 h; the microsomal CLint at 0.25 μM is 57.1 µL/min/mg.

For `Cl.[2H]C([2H])([2H])N[C@@H](CC)Cc1ccc2c(c1)OC([2H])([2H])O2` [Compound 6, (2S)-1-(2,2-Dideuterio-1,3-benzodioxol-5-yl)-N-(trideuteriomethyl)butan-2-amine hydrochloride], the “differences in half-life and intrinsic clearance compared to S-MBDB HCl salt (reference compound)” value is recorded as “significant differences”; the half-life at 0.25 μM was 0.91 h; the microsomal CLint at 0.25 μM turned out to be 25.4 µL/min/mg.

With `Cl.[2H]C1([2H])Oc2ccc(C[C@@H](CC)NC)cc2O1` [Compound 7, (2R)-1-(2,2-Dideuterio-1,3-benzodioxol-5-yl)-N-methyl-butan-2-amine hydrochloride], the “differences in half-life and intrinsic clearance compared to R-MBDB HCl salt (reference compound)” value is listed as “significant differences”; the half-life at 0.25 μM worked out at 0.628 h; the microsomal CLint at 0.25 μM is 36.7 µL/min/mg.

With `Cl.[2H]C1([2H])Oc2ccc(C[C@H](CC)NC)cc2O1` [Compound 9, (2S)-1-(2,2-Dideuterio-1,3-benzodioxol-5-yl)-N-methyl-butan-2-amine hydrochloride], the “differences in half-life and intrinsic clearance compared to S-MBDB HCl salt (reference compound)” value is “significant differences”; the half-life at 0.25 μM came out at 0.867 h; the microsomal CLint at 0.25 μM was determined as 26.7 µL/min/mg.

In the case of `CC[C@H](Cc1ccc2c(c1)OCO2)NC.Cl` [R-MBDB HCl salt], the CLint was 11.7 μL/min/mg protein and the t1/2 is 1.98 h.

`CC[C@@H](Cc1ccc2c(c1)OCO2)NC.Cl` [S-MBDB HCl salt] had a CLint of 8.06 μL/min/mg protein and a t1/2 of 2.87 h.

Take `COc1ccc2c(c1)[C@]13CCCC[C@@H]1[C@H](C2)N(C)CC3` [dextromethorphan]: the CLint turned out to be 53.4 μL/min/mg protein.

These data come from patent publication US20250034105A1, “IS[…] N-METHYL-1,3-BENZODIOXOLYLBUTANAMINE (MBDB) AND STEREOISOMERS THEREOF” (Terran Biosciences Inc., priority 2021, published 2025).
